# Measured values reported in PubChem BioAssay (NCI).
#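 These data come from cells grown in 96-well plates and exposed to compound for 48 hours at five concentrations. GI50: concentration for 50% inhibition of growth. At the TGI there is no net growth.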
# Tests used:
# Experiment in all cases: NCI tumour cell line growth inhibition, 48 h
# OVCAR-3 ovarian = system: OVCAR-3 ovarian
# SF-295 CNS = system: SF-295 CNS
# A549 NSCLC = system: A549 NSCLC
# IGROV1 ovarian = system: IGROV1 ovarian
# BT-549 breast = system: BT-549 breast
# SNB-75 CNS = system: SNB-75 CNS
# NCI-H522 lung = system: NCI-H522 lung
# SN12C renal = system: SN12C renal
# MALME-3M melanoma = system: MALME-3M melanoma
# SK-OV-3 ovarian = system: SK-OV-3 ovarian
# OVCAR-5 ovarian = system: OVCAR-5 ovarian
# NCI-H460 lung = system: NCI-H460 lung
# SK-MEL-5 melanoma = system: SK-MEL-5 melanoma
# RXF 393 renal = system: RXF 393 renal
# OVCAR-4 ovarian = system: OVCAR-4 ovarian
# SF-539 CNS = system: SF-539 CNS
# HOP-62 NSCLC = system: HOP-62 NSCLC
# A498 renal = system: A498 renal
# ACHN renal = system: ACHN renal
# SF-268 CNS = system: SF-268 CNS
# TK-10 renal = system: TK-10 renal
# U251 CNS = system: U251 CNS
# CCRF-CEM leukemia = system: CCRF-CEM leukemia
# CAKI-1 renal = system: CAKI-1 renal
# LOX IMVI melanoma = system: LOX IMVI melanoma
# NCI/ADR-RES ovarian = system: NCI/ADR-RES ovarian
# UACC-62 melanoma = system: UACC-62 melanoma
# HCC-2998 colon = system: HCC-2998 colon
# K-562 leukemia = system: K-562 leukemia
# HCT-15 colon = system: HCT-15 colon
# HCT-116 colon = system: HCT-116 colon
# MOLT-4 leukemia = system: MOLT-4 leukemia
# PC-3 prostate = system: PC-3 prostate
# HT29 colon = system: HT29 colon
# UO-31 renal = system: UO-31 renal
# 786-0 renal = system: 786-0 renal
# DU-145 prostate = system: DU-145 prostate
# RPMI-8226 leukemia = system: RPMI-8226 leukemia
# HL-60(TB) leukemia = system: HL-60(TB) leukemia
# MDA-MB-231 breast = system: MDA-MB-231 breast
# MDA-MB-435 = system: MDA-MB-435
# KM12 colon = system: KM12 colon
# COLO 205 colon = system: COLO 205 colon
# HS 578T breast = system: HS 578T breast
# UACC-257 melanoma = system: UACC-257 melanoma
# SNB-19 CNS = system: SNB-19 CNS
# M14 melanoma = system: M14 melanoma
# SK-MEL-2 melanoma = system: SK-MEL-2 melanoma
# HOP-92 NSCLC = system: HOP-92 NSCLC
# SK-MEL-28 melanoma = system: SK-MEL-28 melanoma
# SW-620 colon = system: SW-620 colon
structure (smiles),measurement,setting,value
CC[CH2][Pb]([CH2]CC)([CH2]CC)[O]C(=O)C(F)(F)F,GI50,OVCAR-3 ovarian,88.5 nM
same,TGI,OVCAR-3 ovarian,239 nM
same,GI50,SF-295 CNS,182 nM
same,TGI,SF-295 CNS,434 nM
same,GI50,A549 NSCLC,172 nM
same,TGI,A549 NSCLC,563 nM
same,GI50,IGROV1 ovarian,177 nM
same,TGI,IGROV1 ovarian,627 nM
same,GI50,BT-549 breast,222 nM
same,TGI,BT-549 breast,707 nM
same,GI50,SNB-75 CNS,67.9 nM
same,TGI,SNB-75 CNS,377 nM
same,GI50,NCI-H522 lung,181 nM
same,TGI,NCI-H522 lung,348 nM
same,GI50,SN12C renal,195 nM
same,TGI,SN12C renal,535 nM
same,GI50,MALME-3M melanoma,89.4 nM
same,TGI,MALME-3M melanoma,348 nM
same,GI50,SK-OV-3 ovarian,275 nM
same,TGI,SK-OV-3 ovarian,1090 nM
same,GI50,OVCAR-5 ovarian,180 nM
same,TGI,OVCAR-5 ovarian,636 nM
same,GI50,NCI-H460 lung,113 nM
same,TGI,NCI-H460 lung,398 nM
same,GI50,SK-MEL-5 melanoma,127 nM
same,TGI,SK-MEL-5 melanoma,264 nM
same,GI50,RXF 393 renal,72.4 nM
same,TGI,RXF 393 renal,277 nM
same,GI50,OVCAR-4 ovarian,38.5 nM
same,TGI,OVCAR-4 ovarian,178 nM
same,GI50,SF-539 CNS,156 nM
same,TGI,SF-539 CNS,424 nM
same,GI50,HOP-62 NSCLC,176 nM
same,TGI,HOP-62 NSCLC,404 nM
same,GI50,A498 renal,57.9 nM
same,TGI,A498 renal,245 nM
same,GI50,ACHN renal,149 nM
same,TGI,ACHN renal,458 nM
same,GI50,SF-268 CNS,156 nM
same,TGI,SF-268 CNS,430 nM
same,GI50,TK-10 renal,204 nM
same,TGI,TK-10 renal,533 nM
same,GI50,U251 CNS,156 nM
same,TGI,U251 CNS,348 nM
same,GI50,CCRF-CEM leukemia,90.6 nM
same,TGI,CCRF-CEM leukemia,775 nM
same,GI50,CAKI-1 renal,160 nM
same,TGI,CAKI-1 renal,501 nM
same,GI50,LOX IMVI melanoma,89.1 nM
same,TGI,LOX IMVI melanoma,255 nM
same,GI50,NCI/ADR-RES ovarian,298 nM
same,TGI,NCI/ADR-RES ovarian,1060 nM
same,GI50,UACC-62 melanoma,116 nM
same,TGI,UACC-62 melanoma,300 nM
same,GI50,HCC-2998 colon,163 nM
same,TGI,HCC-2998 colon,343 nM
same,GI50,K-562 leukemia,91.8 nM
same,TGI,K-562 leukemia,552 nM
same,GI50,HCT-15 colon,124 nM
same,TGI,HCT-15 colon,587 nM
same,GI50,HCT-116 colon,79.8 nM
same,TGI,HCT-116 colon,262 nM
same,GI50,MOLT-4 leukemia,183 nM
same,TGI,MOLT-4 leukemia,627 nM
same,GI50,PC-3 prostate,122 nM
same,TGI,PC-3 prostate,294 nM
same,GI50,HT29 colon,186 nM
same,TGI,HT29 colon,470 nM
same,GI50,UO-31 renal,141 nM
same,TGI,UO-31 renal,409 nM
same,GI50,786-0 renal,165 nM
same,TGI,786-0 renal,376 nM
same,GI50,DU-145 prostate,188 nM
same,TGI,DU-145 prostate,516 nM
same,GI50,RPMI-8226 leukemia,62.7 nM
same,TGI,RPMI-8226 leukemia,403 nM
same,GI50,HL-60(TB) leukemia,44.6 nM
same,TGI,HL-60(TB) leukemia,247 nM
same,GI50,MDA-MB-231 breast,142 nM
same,TGI,MDA-MB-231 breast,440 nM
same,GI50,MDA-MB-435,37.9 nM
same,TGI,MDA-MB-435,106 nM
same,GI50,KM12 colon,125 nM
same,TGI,KM12 colon,330 nM
same,GI50,COLO 205 colon,164 nM
same,TGI,COLO 205 colon,374 nM
same,GI50,HS 578T breast,94.7 nM
same,TGI,HS 578T breast,759 nM
same,GI50,UACC-257 melanoma,154 nM
same,TGI,UACC-257 melanoma,455 nM
same,GI50,SNB-19 CNS,206 nM
same,TGI,SNB-19 CNS,810 nM
same,GI50,M14 melanoma,91.1 nM
same,TGI,M14 melanoma,330 nM
same,GI50,SK-MEL-2 melanoma,214 nM
same,TGI,SK-MEL-2 melanoma,462 nM
same,GI50,HOP-92 NSCLC,29.1 nM
same,TGI,HOP-92 NSCLC,223 nM
same,GI50,SK-MEL-28 melanoma,124 nM
same,TGI,SK-MEL-28 melanoma,452 nM
same,GI50,SW-620 colon,78.6 nM
same,TGI,SW-620 colon,253 nM
